{"source": "patent US10792384B2", "about": "“Rolled fibrous structures comprising encapsulated malodor reduction compositions” (The Procter & Gamble Company, priority 2017, dated 2020)", "experiment": "Blocker Index (BI), expert graders smelling isovaleric acid swatches treated with test material", "settings": "test material 50 ppm on swatch with 20 μL 0.08% isovaleric acid, scale 0-3", "text": "Blocker materials suitable for use in consumer products of the present invention are chosen for their ability to decrease malodor, while not interfering with perception of a fragrance. Material selection is done by assigning two indices to a test sample material from two reference scales in order to rank odor strengths. The two reference scales are the Fragrance Fidelity Index (FFI) scale and the Blocker Index (BI) scale. The FFI ranks the ability of the test sample material to impart a perceivable odor which could cause interference when combined with another fragrance and the BI ranks the ability of the test sample material to reduce malodor perception. The two methods for assigning the indices to a test sample on the FFI and the BI reference scales are given below.\nThe first step in the method for assigning a BI to a test sample material on the BI reference scale is to create the BI reference swatches. […] Fabric swatches for this test are white knit polycotton (4 inch×4 inch) swatches from EMC ordered as PC 50/50. The supplier is instructed to strip the swatches first, stripping involves washing twice with a fragrance-free detergent and rinsing three times.\nThe BI scale contains one clean swatch with no malodor applied. […] These solutions are pipetted to the middle of the swatches. […]", "data": [{"smiles": "C=C/C(C)=C\\CC=C(C)C", "note": "[Material 524]", "values": [{"measurement": "BI", "value": 2.8}]}]}
